Experimental data: PubChem BioAssay AID1918956 (Molecular Pharmacology Branch, DTP, NCI, 2023)

Test system: OVCAR-5 complex spheroids, viability
Test: Anticancer human tumor OVCAR-5 cell line growth inhibition;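 also: spheroids exposed to agents for seven days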
Settings: for IC50: curve of first compound; for viability, T/C: stronger effect = lower value; active = viability on the fitted dose curve at most 10% of control; inactive = the rest
Source text: Multicellular complex tumor spheroid response to LSD1 Inhibitor Iadademstat in combination with a variety of drugs and investigational agents in selected tumor cell lines
The current study was undertaken to assess response to LSD1 inhibitors in combination with standard-of-care drugs and investigational agents in solid tumor complex spheroid models as well as in the K-562 leukemia. Complex spheroids include a stromal component modeled by human endothelial cells (HUVEC) and fibroblasts modeled by human mesenchymal stem cells (MSCs). The concentration ranges selected for each drug and investigational agent were based upon clinically achievable concentrations if the clinical Cmax of the agent was known.
Compounds. The drugs and investigational agents used in this study are listed on Table 1. All of the agents used, including staurosporine (NSC755774) and gemcitabine (NSC613327), were obtained from the Developmental Therapeutics Program, NCI. FDA-approved anticancer drugs are available from the NCI at http://dtp.nci.nih.gov/branches/dscb/oncology_drugset_explanation.html. Drugs and investigational agents were >95% pure by proton nuclear magnetic resonance (NMR) and liquid chromatography/mass spectrometry (LC/MS). Stock solutions were prepared at 400x in DMSO, stored at -70 degrees C, and diluted in fresh medium prior to their use. The final concentration of DMSO in cell culture wells never exceeded 0.25% (v/v). The FDA-approved anticancer drug set is available from the Developmental Therapeutics Program at https://dtp.cancer.gov/organization/dscb/obtaining/available_plates.htm. All drugs and investigational agents were tested over a range starting from a high concentration at or near the clinical Cmax and decreasing in half-log increments. If the clinical Cmax for an agent had not been determined, the highest concentration tested was 10 microM.
Cell Lines. The patient-derived cancer cell (PDC) lines: 292921-168-R-J2-PDC, K24384-001-R-PDC, and 521955-158-R2-J5-PDC pancreatic carcinomas, 556581-035-R-J1 ovarian carcinoma, 324938-238-R-J1-PDC, 855422-203-R-J1-PDC and 883617-216-R-J1-PDC urothelial bladder carcinomas, 743489-274-T-PDC renal cell carcinoma, 138582-R-J1 Merkel cell tumor, K60290-347-R-J1 and K57222-313-R-J1-PDC glioblastomas, 653999-131-R-J2-PDC, LG0703-F948-PDC, and 349418-098-R-PDC non-small cell lung carcinomas, 885512-296-R-J2-PDC, 171881-019-R-J1-PDC breast carcinomas and 186277-243-T-J2-PDC and 233499-124-R-J2-PDC colon carcinomas were obtained from the NCI Patient-Derived Models Repository (PDMR, https://pdmr.cancer.gov). The established cell lines NCI/ADR-RES (RRID:CVCL_14520 and OVCAR-5 (RRID:CVCL_1628) ovarian carcinomas, 786-O (RRID:CVCL_1051) and A498 […] renal cell carcinoma, NCI-H211 (ATCC, cat. CRL-5824; RRID:CVCL_1529), NCI-H196 (ATCC, cat. CRL-5823, RRID:CVCL_1509), SW 1271 (ATCC, cat. CRL-2177, RRID:CVCL_1716) and NCI-H1876 (ATCC, cat. CRL-5902, RRID:CVCL_1503) small cell lung carcinomas, MDA-MB-231 (RRID:CVCL_0062) and MDA-MB-468 (RRID:CVCL_0419)breast carcinomas (10-12). Pooled donor human umbilical vein endothelial cells (HUVEC, Lonza, cat. CC-2519) and human mesenchymal stem cells (hMSC, Lonza, cat. PT-2501) were purchased from Lonza (Walkersville, MD).
Cell Culture. All cells were maintained in an incubator at 37 degrees C and 5% CO2 with 95% humidity. The PDC lines were cultured according to standard operating procedures established by the NCI PDMR (https://pdmr.cancer.gov). Briefly all PDCs were thawed and cultured in Matrigel-coated flasks prepared with a working solution of 1X Ham's F-12 nutrient mix, without supplementation (Invitrogen, Waltham, MA, cat. 11765054), 100 U/mL penicillin-streptomycin (Invitrogen, cat. 15140122), and 2.5% Matrigel (Corning Inc., Corning, NY, cat. 354248) for the first three passages. […]

[1] = second compound 0.1 µM, first compound 0.000316 µM
[2] = second compound 0.1 µM, first compound 0.001 µM
[3] = second compound 0.1 µM, first compound 0.00316 µM
[4] = second compound 0.1 µM, first compound 0.01 µM
[5] = second compound 0.1 µM, first compound 0.0316 µM
[6] = second compound 0.1 µM, first compound 0.1 µM
[7] = second compound 0.316 µM, first compound 0.000316 µM
[8] = second compound 0.316 µM, first compound 0.001 µM
[9] = second compound 0.316 µM, first compound 0.00316 µM
[10] = second compound 0.316 µM, first compound 0.01 µM
[11] = second compound 0.316 µM, first compound 0.0316 µM
[12] = second compound 0.316 µM, first compound 0.1 µM
[13] = second compound 1 µM, first compound 0.000316 µM
[14] = second compound 1 µM, first compound 0.001 µM
[15] = second compound 1 µM, first compound 0.00316 µM
[16] = second compound 1 µM, first compound 0.01 µM
[17] = second compound 1 µM, first compound 0.0316 µM
[18] = second compound 1 µM, first compound 0.1 µM
[19] = second compound 3.16 µM, first compound 0.000316 µM
[20] = second compound 3.16 µM, first compound 0.001 µM
[21] = second compound 3.16 µM, first compound 0.00316 µM
[22] = second compound 3.16 µM, first compound 0.01 µM
[23] = second compound 3.16 µM, first compound 0.0316 µM
[24] = second compound 3.16 µM, first compound 0.1 µM
[25] = second compound 10 µM, first compound 0.000316 µM
[26] = second compound 10 µM, first compound 0.001 µM
[27] = second compound 10 µM, first compound 0.00316 µM
[28] = second compound 10 µM, first compound 0.01 µM
[29] = second compound 10 µM, first compound 0.0316 µM
[30] = second compound 10 µM, first compound 0.1 µM

Cn1ncnc1C1c2n[nH]c(=O)c3cc(F)cc(c23)NC1c1ccc(F)cc1 (stereo not given) + NC1CCC(NC2CC2c2ccccc2)CC1
> 0.1 µM: IC50 (second compound 0.1 µM) | IC50 (second compound 0.316 µM) | IC50 (second compound 1 µM) | IC50 (second compound 3.16 µM) | IC50 (second compound 10 µM)
inactive: viability, T/C [1] 109% | viability, T/C [2] 95.3% | viability, T/C [3] 104% | viability, T/C [4] 104% | viability, T/C [5] 99.5% | viability, T/C [6] 100% | viability, T/C [7] 112% | viability, T/C [8] 98.7% | viability, T/C [9] 98.3% | viability, T/C [10] 96% | viability, T/C [11] 91.9% | viability, T/C [12] 104% | viability, T/C [13] 109% | viability, T/C [14] 96.2% | viability, T/C [15] 95.7% | viability, T/C [16] 99.3% | viability, T/C [17] 99% | viability, T/C [18] 94.3% | viability, T/C [19] 97.4% | viability, T/C [20] 95.9% | viability, T/C [21] 87.9% | viability, T/C [22] 91.3% | viability, T/C [23] 80.2% | viability, T/C [24] 91.5% | viability, T/C [25] 86% | viability, T/C [26] 107% | viability, T/C [27] 81.4% | viability, T/C [28] 79% | viability, T/C [29] 67.6% | viability, T/C [30] 81.3%

Nc1ccccc1NC(=O)c1ccc(CNC(=O)OCc2cccnc2)cc1 + NC1CC1c1ccc(-c2cccc(O)c2)cc1
0.123 µM: IC50 (second compound 0.1 µM) | IC50 (second compound 10 µM)
0.145 µM: IC50 (second compound 1 µM)
active: viability, T/C (second compound 0.1 µM, first compound 3 µM) 8.11% | viability, T/C (second compound 0.316 µM, first compound 3 µM) 8.17% | viability, T/C (second compound 1 µM, first compound 3 µM) 8.19% | viability, T/C (second compound 3.16 µM, first compound 3 µM) 7.56%
0.111 µM: IC50 (second compound 3.16 µM)
inactive: viability, T/C (second compound 0.1 µM, first compound 0.00949 µM) 83.1% | viability, T/C (second compound 0.1 µM, first compound 0.03 µM) 71.6% | viability, T/C (second compound 0.1 µM, first compound 0.0949 µM) 54.5% | viability, T/C (second compound 0.1 µM, first compound 0.3 µM) 34.8% | viability, T/C (second compound 0.1 µM, first compound 0.949 µM) 19.2% | viability, T/C (second compound 0.316 µM, first compound 0.00949 µM) 84.9% | viability, T/C (second compound 0.316 µM, first compound 0.03 µM) 79.7% | viability, T/C (second compound 0.316 µM, first compound 0.0949 µM) 65.3% | viability, T/C (second compound 0.316 µM, first compound 0.3 µM) 35.5% | viability, T/C (second compound 0.316 µM, first compound 0.949 µM) 19.4% | viability, T/C (second compound 1 µM, first compound 0.00949 µM) 75.6% | viability, T/C (second compound 1 µM, first compound 0.03 µM) 65.9% | viability, T/C (second compound 1 µM, first compound 0.0949 µM) 62.2% | viability, T/C (second compound 1 µM, first compound 0.3 µM) 32.4% | viability, T/C (second compound 1 µM, first compound 0.949 µM) 19.8% | viability, T/C (second compound 3.16 µM, first compound 0.00949 µM) 84% | viability, T/C (second compound 3.16 µM, first compound 0.03 µM) 68.6% | viability, T/C (second compound 3.16 µM, first compound 0.0949 µM) 55.5% | viability, T/C (second compound 3.16 µM, first compound 0.3 µM) 30.6% | viability, T/C (second compound 3.16 µM, first compound 0.949 µM) 17.8% | viability, T/C (second compound 10 µM, first compound 0.00949 µM) 79.6% | viability, T/C (second compound 10 µM, first compound 0.03 µM) 71.3% | viability, T/C (second compound 10 µM, first compound 0.0949 µM) 55.5% | viability, T/C (second compound 10 µM, first compound 0.3 µM) 32.1% | viability, T/C (second compound 10 µM, first compound 0.949 µM) 19.5% | viability, T/C (second compound 10 µM, first compound 3 µM) 9.48%
0.174 µM: IC50 (second compound 0.316 µM)

CC[C@@]1(O)C(=O)OCc2c1cc1n(c2=O)Cc2cc3c(CN(C)C)c(O)ccc3nc2-1 + NC1CC1c1ccc(-c2cccc(O)c2)cc1
inactive: viability, T/C [1] 96.1% | viability, T/C [2] 83.5% | viability, T/C [3] 47.5% | viability, T/C [4] 32.3% | viability, T/C [5] 35.6% | viability, T/C [6] 18.8% | viability, T/C [7] 102% | viability, T/C [8] 87.3% | viability, T/C [9] 48.9% | viability, T/C [10] 34.3% | viability, T/C [11] 33% | viability, T/C [12] 19.8% | viability, T/C [13] 101% | viability, T/C [14] 78.3% | viability, T/C [15] 38.6% | viability, T/C [16] 30.5% | viability, T/C [17] 34.4% | viability, T/C [18] 18.4% | viability, T/C [19] 88.1% | viability, T/C [20] 78.8% | viability, T/C [21] 37.9% | viability, T/C [22] 33.1% | viability, T/C [23] 33.4% | viability, T/C [24] 18.7% | viability, T/C [25] 93.3% | viability, T/C [26] 75.6% | viability, T/C [27] 40.1% | viability, T/C [28] 31.8% | viability, T/C [29] 37.7% | viability, T/C [30] 20.7%
0.00232 µM: IC50 (second compound 10 µM)
0.00231 µM: IC50 (second compound 1 µM)
0.00227 µM: IC50 (second compound 3.16 µM)
0.00305 µM: IC50 (second compound 0.1 µM)
0.0034 µM: IC50 (second compound 0.316 µM)
